# Measurements: patent publication US20190008797A1, “ESTROGEN RECEPTOR ALPHA COLIGANDS, AND METHODS OF USE THEREOF” (priority 2016, published 2019)
# Key:
# purified ERα = purified ERα (Homo sapiens, UniProt P03372); experiment: Fluorescent polarization with purified ERα; format: binding
# hAR = molecular target: T1, hAR (Homo sapiens, UniProt P10275); experiment: TAT3-luciferase reporter, U2OS cells cotransfected with hAR; format: cell-based; details: 5 μM + 10 nM dihydrotestosterone, 24 hours
# T1 construct: expressed in transfected cells; host or cells: U2OS
# T1 sequence (P10275 1-920): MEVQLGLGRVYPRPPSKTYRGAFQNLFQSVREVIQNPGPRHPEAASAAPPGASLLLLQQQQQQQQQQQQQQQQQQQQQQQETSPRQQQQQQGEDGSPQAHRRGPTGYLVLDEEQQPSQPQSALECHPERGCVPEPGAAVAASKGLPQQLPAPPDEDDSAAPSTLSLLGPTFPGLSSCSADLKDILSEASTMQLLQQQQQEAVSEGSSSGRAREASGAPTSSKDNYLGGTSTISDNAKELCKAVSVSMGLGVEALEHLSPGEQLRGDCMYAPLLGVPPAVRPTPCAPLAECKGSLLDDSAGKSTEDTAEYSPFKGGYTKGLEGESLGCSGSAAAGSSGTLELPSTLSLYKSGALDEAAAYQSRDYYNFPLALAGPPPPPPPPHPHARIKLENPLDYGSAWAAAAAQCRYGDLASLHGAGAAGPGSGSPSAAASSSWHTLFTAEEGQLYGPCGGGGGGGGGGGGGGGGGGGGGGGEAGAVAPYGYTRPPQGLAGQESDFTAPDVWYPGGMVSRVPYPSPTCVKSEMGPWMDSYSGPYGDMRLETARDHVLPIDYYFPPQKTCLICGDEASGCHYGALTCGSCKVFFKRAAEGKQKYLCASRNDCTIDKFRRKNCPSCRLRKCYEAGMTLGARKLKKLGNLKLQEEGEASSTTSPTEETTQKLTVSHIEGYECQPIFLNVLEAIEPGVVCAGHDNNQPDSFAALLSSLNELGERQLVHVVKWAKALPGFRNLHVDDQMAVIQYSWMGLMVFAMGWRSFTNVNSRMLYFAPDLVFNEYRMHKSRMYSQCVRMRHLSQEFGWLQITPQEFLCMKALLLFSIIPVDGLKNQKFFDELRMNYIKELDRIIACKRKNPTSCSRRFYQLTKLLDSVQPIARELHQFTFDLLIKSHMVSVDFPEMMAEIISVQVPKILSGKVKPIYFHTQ
# hPR-B = molecular target: T2, hPR-B (Homo sapiens, UniProt P06401); experiment: TAT3-luciferase reporter, U2OS cells cotransfected with hPR-B; format: cell-based; details: 5 μM + 10 nM progesterone, 24 hours
# T2 construct: expressed in transfected cells; host or cells: U2OS
# T2 sequence (P06401 1-933): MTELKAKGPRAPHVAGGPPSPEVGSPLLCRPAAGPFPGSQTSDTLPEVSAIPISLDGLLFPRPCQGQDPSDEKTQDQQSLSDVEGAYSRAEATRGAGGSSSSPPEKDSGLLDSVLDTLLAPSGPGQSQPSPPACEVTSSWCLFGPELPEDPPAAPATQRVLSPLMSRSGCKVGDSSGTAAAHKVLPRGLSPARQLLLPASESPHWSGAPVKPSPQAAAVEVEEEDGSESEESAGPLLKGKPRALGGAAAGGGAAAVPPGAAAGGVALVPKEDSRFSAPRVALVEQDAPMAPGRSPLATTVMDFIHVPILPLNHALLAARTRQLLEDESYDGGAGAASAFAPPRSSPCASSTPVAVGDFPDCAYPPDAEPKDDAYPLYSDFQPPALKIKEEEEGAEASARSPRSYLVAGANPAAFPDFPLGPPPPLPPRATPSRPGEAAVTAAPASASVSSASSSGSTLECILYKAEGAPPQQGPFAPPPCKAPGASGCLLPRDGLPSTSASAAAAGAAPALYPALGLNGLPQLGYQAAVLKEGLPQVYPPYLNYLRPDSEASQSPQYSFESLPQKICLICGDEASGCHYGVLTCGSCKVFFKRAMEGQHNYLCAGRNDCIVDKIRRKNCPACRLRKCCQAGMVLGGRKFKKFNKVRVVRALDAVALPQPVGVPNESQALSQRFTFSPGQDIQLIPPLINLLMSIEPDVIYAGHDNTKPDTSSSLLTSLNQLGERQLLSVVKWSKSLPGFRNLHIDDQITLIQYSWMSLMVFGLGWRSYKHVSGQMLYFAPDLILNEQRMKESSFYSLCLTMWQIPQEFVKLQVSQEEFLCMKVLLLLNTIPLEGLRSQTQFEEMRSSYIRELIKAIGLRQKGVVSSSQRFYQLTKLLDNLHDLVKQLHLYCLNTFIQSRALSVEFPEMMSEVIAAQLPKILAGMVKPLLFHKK
# mouse uterus = experiment: Ovariectomized (OVX) mouse model, osmotic pump; format: in vivo; details: OVX mice
# Description: 8 week old C57b1/6J female ovariectomized or intact mice were purchased from Jackson Laboratories, Sacramento, Calif. Mice were housed and maintained according to OLAC standard procedures in the NAF facility at UC Berkeley, Calif. All mice were fed a soy-free chow diet 2916.15 (Harlan Laboratories, Livermore, Calif.) starting one week before osmotic pump implantation or 2′, 3′, 4′-THC injection. Pumps Model 2006 were purchased from Alzet and filled with vehicle, 1 μg […], 2 mg of 2′, 3′, 4′-THC or the combination of 2′, 3′, 4′-THC and estradiol. All drugs were dissolved in sterile vehicle consisting of 50% dimethylsulfoxide (DMSO), 25% ETOH and 25% deionized water. Pumps were handled with sterile gloves and filled using a 27 gauge filling tube and 1 mL syringe. All pumps were placed in 1X PBS in 15 mL sterile conical tubes and incubated overnight at 37° . Pumps were surgically implanted into 8 week old C57b1/6J female ovariectomized mice (Jackson Laboratory, Sacramento, Calif.) posterior to the scapula and left for a duration of 4 weeks. Intact mice were injected intraperitoneal with 2′, 3′, 4′-THC every day for 3 weeks. Mice were weighed once a week for the duration of the experiment. The intraperitoneal gonadal fat was removed and weighed. Uterine tissue was collected, fluid drained and then weighed.
# Tissues were dissected and immediately frozen in liquid nitrogen. Before RNA isolation, tissues were homogenized in PureZOL™ using the MP FastPrep™-24 for 40 seconds.
# Uterine Tissue Slide Preparation Uterine tissue was removed and trimmed of excess adipose tissue. Tissues were fixed in formalin for 24 hours then transferred to 50% ETOH for 1 hour followed by 70% ethanol (ETOH) for another hour. After fixation tissues were sent to Histopathology Reference Laboratory, Hercules Calif. where they were paraffin embedded, sectioned and stained with hematoxylin and eosin for morphological exam
# FIGS. 5a-5h. 2′, 3′, 4′-THC acts as antagonist in the mouse uterus. Uterine weights of intact (FIG. 5a) and OVX (FIG. 5b) mice. […] (FIG. 5h) Total body weight of OVX mice after 4 week treatment. Error bars are ±SEM.
# MCF-7 cells = experiment: KRT19 mRNA RT-QPCR in MCF-7 cells; details: 5 μM + 10 nM E2, 4 hours
# Chain of purified ERα (P03372 whole entry): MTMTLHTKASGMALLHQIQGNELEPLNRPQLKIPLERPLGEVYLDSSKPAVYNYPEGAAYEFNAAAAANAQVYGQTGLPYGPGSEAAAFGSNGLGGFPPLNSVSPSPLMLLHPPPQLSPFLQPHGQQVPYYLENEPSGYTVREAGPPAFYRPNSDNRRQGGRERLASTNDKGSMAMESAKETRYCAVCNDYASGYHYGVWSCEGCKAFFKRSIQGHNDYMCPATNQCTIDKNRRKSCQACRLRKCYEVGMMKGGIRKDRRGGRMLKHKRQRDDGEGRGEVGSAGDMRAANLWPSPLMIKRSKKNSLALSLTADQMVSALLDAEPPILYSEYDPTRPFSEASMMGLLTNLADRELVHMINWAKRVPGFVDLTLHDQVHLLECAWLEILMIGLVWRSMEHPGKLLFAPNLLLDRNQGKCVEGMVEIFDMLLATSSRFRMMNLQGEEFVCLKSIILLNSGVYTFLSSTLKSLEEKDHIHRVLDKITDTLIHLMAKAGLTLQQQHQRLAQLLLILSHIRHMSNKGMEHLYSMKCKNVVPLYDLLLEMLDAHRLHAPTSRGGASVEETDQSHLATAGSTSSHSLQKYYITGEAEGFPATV
compound,measurement,setting,value
"O=C(/C=C/c1ccccc1)c1ccc(O)c(O)c1O [2′, 3′, 4′-THC, 2′, 3′, 4′-trihydroxychalcone]",IC50 relative to E2 (higher),purified ERα,"approximately 10,000 fold"
same,synergy with receptor agonist,hAR,no synergy
same,synergy with receptor agonist,hPR-B,no synergy
same,"H & E staining of uterus, effect on E2 response","mouse uterus; combination with E2, 4 weeks",inhibited the proliferative response
same,effect on E2-induced increase in uterine weight,"mouse uterus; combination with E2, 4 weeks",blocked
same,effect on E2-induced increased uterine mRNA for LCN2,"mouse uterus; combination with E2, 4 weeks",antagonist effect
same,effect on E2-induced increased uterine mRNA for LTF,"mouse uterus; combination with E2, 4 weeks",antagonist effect
same,effect on E2-induced increased uterine mRNA for SA100A9,"mouse uterus; combination with E2, 4 weeks",antagonist effect
same,effect on E2 decrease of gonadal adipose tissue fat,"mouse uterus; combination with E2, 4 weeks",not blocked
same,"uterine size / uterine weight, compound alone","mouse uterus; osmotic pump, 4 weeks",did not increase
same,effect on E2 activation of the KRT19 gene,MCF-7 cells,did not have a significant effect
